Data published in ChEMBL document CHEMBL5154881, “Discovery of First-in-Class TAK1-MKK3 Protein-Protein Interaction (PPI) Inhibitor (R)-STU104 for the Treatment of Ulcerative Colitis through Modulating TNF-α Production” (J Med Chem, 2022).
Active and inactive are the calls of the source. The calls are words filed in the database; no cut-off is given here.

Assays:
[1] = n-Octanol/water partition coefficient, logP of the compound incubated for 24 hrs by HPLC analysis; type: physicochemical
[2] = tested on: Mus musculus; assay: Anti-ulcerative colitis activity against DSS-induced ulcerative colitis C57BL/6 mouse model assessed as body weight recovery rate at 3 mg/kg, IG via gavage administered for 7 days and measured everyday relative to control; type: functional; conditions: time 7 day
[3] = tested on: Mus musculus; assay: Anti-ulcerative colitis activity in IL-10-/- C57BL/6 mouse model of ulcerative colitis assessed as histopathological score recovery ratio at 1 mg/kg, IG via gavage for 8 weeks relative to control; type: functional
[4] = tested on: Mus musculus; assay: Anti-ulcerative colitis activity in DSS-induced C57BL/6 mouse ulcerative colitis model assessed as colon length recovery ratio at 1 mg/kg, IG via gavage measured after 7 days relative to control; type: functional; conditions: time 7 day
[5] = tested on: Mus musculus; assay: Antiinflammatory activity against DSS-induced C57BL/6 mouse model of acute ulcerative colitis assessed as inhibition ratio of TNF-alpha mRNA expression in colon tissue at 1 mg/kg, IG via gavage measured after 7 days by RT-qPCR analysis relative to control; type: functional; set-up: scale not given: the % may be the effect or the level left; conditions: time 7 day
[6] = tested on: Mus musculus; assay: Antiinflammatory activity against IL-10-/- C57BL/6 mouse model of ulcerative colitis assessed as inhibition ratio of IL-6 protein expression at 1 mg/kg, IG via gavage and measured after 8 weeks by ELISA relative to control; type: functional; set-up: scale not given: the % may be the effect or the level left
[7] = Toxicity in C57 mouse assessed as lung damage at 50 to 500 mg/kg, po administered daily for 14 days; type: organism-based; conditions: in vivo, 336 h, dose 50-500 mg/kg, time 14 day
[8] = Toxicity in C57 mouse assessed as spleen damage at 50 to 500 mg/kg, po administered daily for 14 days; type: organism-based; conditions: in vivo, 336 h, dose 50-500 mg/kg, time 14 day
[9] = tested on: Mus musculus; assay: Antiinflammatory activity against IL-10-/- C57BL/6 mouse model of ulcerative colitis assessed as inhibition ratio of TNF-alpha protein expression at 1 mg/kg, IG via gavage and measured after 8 weeks by ELISA relative to control; type: functional; set-up: scale not given: the % may be the effect or the level left
[10] = target: T1, Dual specificity mitogen-activated protein kinase kinase 3 (Homo sapiens) (UniProt P46734); assay: Inhibition of human MMK3 at 50 uM using SAPK2a as substrate incubated for 120 mins in presence of [gamma-33P]-ATP by scintillation counting method relative to control
T1 sequence (whole entry): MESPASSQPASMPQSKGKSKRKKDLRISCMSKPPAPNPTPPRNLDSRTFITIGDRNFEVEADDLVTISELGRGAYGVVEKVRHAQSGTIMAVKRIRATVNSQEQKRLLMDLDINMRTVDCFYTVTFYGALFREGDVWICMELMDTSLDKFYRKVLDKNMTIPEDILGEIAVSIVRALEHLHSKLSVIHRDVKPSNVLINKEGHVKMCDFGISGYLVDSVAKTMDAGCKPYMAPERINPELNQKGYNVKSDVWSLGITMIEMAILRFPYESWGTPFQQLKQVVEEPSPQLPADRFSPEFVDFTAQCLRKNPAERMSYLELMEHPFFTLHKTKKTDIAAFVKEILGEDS

[11] = tested on: Mus musculus; assay: Antiinflammatory activity against DSS-induced C57BL/6 mouse model of acute ulcerative colitis assessed as inhibition ratio of TNF-alpha protein expression at 1 mg/kg, IG via gavage measured after 7 days by ELISA relative to control; type: functional; set-up: scale not given: the % may be the effect or the level left; conditions: time 7 day
[12] = tested on: RAW264.7; assay: Inhibition of TAK1-MKK3 protein-protein interaction in LPS-treated mouse RAW264.7 cells assessed as reduction in TAK1 levels at 3.13 to 12.5 umol/L incubated for 30 mins by immunoprecipitation method; type: cell-based; conditions: dose 3.13-12.5 µmol/L
[13] = tested on: Mus musculus; assay: Antiinflammatory activity against DSS-induced C57BL/6 mouse model of acute ulcerative colitis assessed as inhibition ratio of IL-23 mRNA expression in colon tissue at 10 mg/kg, IG via gavage measured after 7 days by RT-qPCR analysis relative to control; type: functional; set-up: scale not given: the % may be the effect or the level left; conditions: time 7 day
[14] = tested on: Mus musculus; assay: Antiinflammatory activity against DSS-induced C57BL/6 mouse model of acute ulcerative colitis assessed as inhibition ratio of IL-6 mRNA expression in colon tissue at 3 mg/kg, IG via gavage measured after 7 days by RT-qPCR analysis relative to control; type: functional; set-up: scale not given: the % may be the effect or the level left; conditions: time 7 day
[15] = tested on: Mus musculus; assay: Antiinflammatory activity against IL-10-/- C57BL/6 mouse model of ulcerative colitis assessed as inhibition ratio of TNF-alpha mRNA expression in colon tissue at 10 mg/kg, IG via gavage and measured after 8 weeks by RT-qPCR analysis relative to control; type: functional; set-up: scale not given: the % may be the effect or the level left
[16] = Toxicity in C57 mouse assessed as maximum tolerated dose administered orally daily for 14 days; conditions: in vivo, route po, time 14 day
[17] = tested on: Mus musculus; assay: Antiinflammatory activity against IL-10-/- C57BL/6 mouse model of acute ulcerative colitis assessed as decrease in serum TNF-alpha levels administered intragastrically via gavage measured after 8 weeks by ELISA; type: functional, organism-based; conditions: dose 3-10 mg/kg, route ig, DDE = dose-dependent effect
[18] = tested on: Mus musculus; assay: Antiinflammatory activity against DSS-induced C57BL/6 mouse model of acute ulcerative colitis assessed as inhibition ratio of IL-1beta protein expression at 10 mg/kg, IG via gavage measured after 7 days by ELISA relative to control; type: functional; set-up: scale not given: the % may be the effect or the level left; conditions: time 7 day
[19] = tested on: Mus musculus; assay: Antiinflammatory activity against IL-10-/- C57BL/6 mouse model of acute ulcerative colitis assessed as decrease in serum IL-23 levels administered intragastrically via gavage measured after 8 weeks by ELISA; type: functional, organism-based; conditions: dose 3-10 mg/kg, route ig, DDE = dose-dependent effect
[20] = tested on: Mus musculus; assay: Antiinflammatory activity against DSS-induced C57BL/6 mouse model of acute ulcerative colitis assessed as reduction in serum IL-23 levels administered intragastrically via gavage measured after 7 days by ELISA; type: functional, organism-based; conditions: dose 1-10 mg/kg, route ig, time 7.0 day, DDE = dose-dependent effect
[21] = AUC (0 to infinity) in 12 hr starved C57 mouse at 30 mg/kg, po measured for 0.083 to 24 hrs post-dose by LC-MS-MS analysis; type: ADME, organism-based; set-up: time upper 24 hrs, dose 30 mg/kg, time lower 0.083 hrs, route po; conditions: in vivo
[22] = tested on: Mus musculus; assay: Antiinflammatory activity against DSS-induced C57BL/6 mouse model of acute ulcerative colitis assessed as inhibition ratio of IL-1beta protein expression at 3 mg/kg, IG via gavage measured after 7 days by ELISA relative to control; type: functional; set-up: scale not given: the % may be the effect or the level left; conditions: time 7 day
[23] = tested on: Mus musculus; assay: Antiinflammatory activity against DSS-induced C57BL/6 mouse model of acute ulcerative colitis assessed as reduction in serum IL-1beta levels administered intragastrically via gavage measured after 7 days by ELISA; type: functional, organism-based; conditions: dose 1-10 mg/kg, route ig, time 7.0 day, DDE = dose-dependent effect
[24] = tested on: Mus musculus; assay: Anti-ulcerative colitis activity in DSS-induced C57BL/6 mouse ulcerative colitis model assessed as colon length recovery ratio at 10 mg/kg, IG via gavage measured after 7 days relative to control; type: functional; conditions: time 7 day
[25] = MRT (0 to infinity) in 12 hr starved C57 mouse at 30 mg/kg, po measured for 0.083 to 24 hrs post-dose by LC-MS-MS analysis; type: ADME, organism-based; conditions: in vivo, time 0.083-24 hrs
[26] = Apparent clearance during terminal phase in 12 hr starved C57 mouse at 30 mg/kg, po measured for 0.083 to 24 hrs post-dose by LC-MS-MS analysis; type: ADME, organism-based; conditions: in vivo, time 0.083-24 hrs
[27] = tested on: Mus musculus; assay: Anti-ulcerative colitis activity in DSS-induced C57BL/6 mouse ulcerative colitis model assessed as histopathological score recovery ratio at 1 mg/kg, IG via gavage measured after 7 days by H and E staining method relative to control; type: functional; conditions: time 7 day
[28] = Half life in 12 hr starved C57 mouse at 30 mg/kg, po measured for 0.083 to 24 hrs post-dose by LC-MS-MS analysis; type: ADME, organism-based; conditions: in vivo, time 0.083-24 hrs

SMILES: COc1ccc([C@H]2CC(=O)c3cc(OC)cc(OC)c32)cc1
- logP at 24 h [1]: 2.01
- Activity [2]: 22.7%
- Activity [3]: 33%
- Activity [4]: 33.3%
- Activity [5]: 68.6%
- Activity [6]: 31.4%
- Activity [7]: Non-Toxic
- Activity [8]: Non-Toxic
- Activity [9]: 40.2%
- inhibition [10]: < 10%
- Activity [11]: 32.9%
- inhibition [12]: Active
- Activity [13]: 90.5%
- Activity [14]: 68%
- Activity [15]: 68.5%
- MTD at 336 h [16]: 500 mg/kg
- Activity [17]: Dde
- Activity [18]: 64.4%
- Activity [19]: Dde
- Activity [20]: Dde
- AUC [21]: 16991 ng·h/mL
- Activity [22]: 60.8%
- Activity [23]: Dde
- Activity [24]: 57.6%
- MRT inf [25]: 12.5 h
- CLz/F [26]: 4.83 mL/min/kg
- Activity [27]: 25%
- half-life [28]: 8.67 h
